Measured values as given in patent US6455469B1, “Herbicidal composition” (Ishihara Sangyo Kaisha, Ltd., priority 2000, dated 2002).

Columns and labels:
Format in all cases: in vivo
[1] = test system: six broadleaf weeds (CASOB, IPOHE, ABUTH, AMARE, CHEAL, XANST); assay: Greenhouse pre-emergence test, mean control of six broadleaf weeds; conditions: soil surface spray 1 day after planting, visual rating 0-100% after two weeks, grass herbicides 1000 g/ha, atrazine 1680 g/ha, isoxaflutole 78 g/ha, B-128 125 g/ha
Excerpt: (§1) Seeds of weed species were sown in 10 cm square plastic pots containing a 3:2:1 sand:soil:peat mixture. Species included six broadleaf weeds, CASOB (Cassia obtusifolia, L., sicklepod), IPOHE (Ipomoea hederacea, L., ivyleaf morningglory), ABUTH (Abutilon theophrastii, velvetleaf, AMARE (Amaranthus retroflexus, redroot pigweed), CHEAL (Chenopodium album, lambsquarters) and XANST (Xanthium strumarium, cocklebur ), four grass weeds, SORHA (Sorghum halepense, johnsongrass), SETVI (Setaria viridis, green foxtail), ECHCG (Echinochloa crus-galli, bamyardgrass), and DIGSA (Digitria sanguinalis, large crabgrass) and four crops species, Zea mays, Glycine max L. Triticum aestivum, and Oryza sativa. Herbicide treatments were applied in water carrier via automated track sprayer to the soil surface of these pots 1 day after planting. The sprayer was calibrated to deliver the material in a volume of 187 l/ha through a TJ8001E spray nozzle at a pressure of 40 PSI.
(§2) Treatments included the compounds of formula I numbers 1, 15, 16 and 23, the commercial grass herbicides metolachlor S (Dual II Magnum®), acetochlor (Harness®), alachlor (Lasso MT®) alone and in combination with three broadleaf herbicides, atrazine, isoxaflutole and compound B-128 (Table 2). All grass herbicides (compounds 1, 15, 16, 23, metolachlor S, acetochlor and alachor were applied at a rate of 1000 g/ha. The broadleaf herbicides were applied at 1680 g/ha for atrazine, 78 g/ha for isoxaflutole and 125 g/ha for B-128.
(§3) After treatment, pots were returned to a greenhouse where they were watered and held in good growth conditions for two weeks. At the end of two weeks, herbicidal efficacy was evaluated visually using a rating system from 0-100%, where 0=no inhibition of growth, and 100=complete death of all plants in the testing unit. Results are reported in table 3 as the mean control of all six broadleaf weeds, mean control of all four grass weeds and the phytotoxicity to maize.

[2] = test system: four grass weeds (SORHA, SETVI, ECHCG, DIGSA); assay: Greenhouse pre-emergence test, mean control of four grass weeds; conditions: soil surface spray 1 day after planting, visual rating 0-100% after two weeks, grass herbicides 1000 g/ha, atrazine 1680 g/ha, isoxaflutole 78 g/ha, B-128 125 g/ha
Excerpt: as §1, §2, §3

[3] = test system: Amaranthus retroflexus, Abutilon theophrasti, Chenopodium album, Ipomoea hederacea, and Setaria viridis; assay: Field trials, overall herbicidal performance in words
Excerpt: (§4) Two field trials were established on contrasting soil types. Trial 1 was on a soil with low organic matter and high sand content, and trial 2 was on a clay loam soil with moderate amounts of organic matter. In both cases, the soil was overseeded (followed by light tillage) with seeds of Amaranthus retroflexus, Abutilon theophrasti, Chenopodium album, Ipomoea hederacea, and Setaria viridis to ensure consistent weed populations. Maize was planted with 30 inches between rows. Immediately after planting the maize, herbicidal treatments were applied using a boom sprayer equipped with Tee Jet 110-015 nozzles applying the spray solution at a rate of 187 l/hectare. Untreated check plots were included as the basis for comparison of herbicidal efficacy.
(§5) Treatments included the compound of formula I number 16, the commercial grass herbicides metolachlor S (Dual II Magnum®), acetochlor (Harness®) and dimethenamid (Frontier®) alone and in combination with two broadleaf herbicides, atrazine and B-128. All grass herbicides (compound 16, metolachlor S, acetochlor and dimethenamid) were applied at a rate of 1000 g/ha. The broadleaf herbicides were applied at 1680 g/ha for atrazine and 150 g/ha for B-128.
Observations on percent weed control and phytotoxicity to maize were made at 35 days after treatment for field trial 1 and 21 days after application for field trial 2. […]

Setaria viridis = assay: Field trials, control of Setaria viridis; conditions: grass herbicides 1000 g/ha, atrazine 1680 g/ha, B-128 150 g/ha
Excerpt: as §4, §5
(§6) Observations on percent weed control and phytotoxicity to maize were made at 35 days after treatment for field trial 1 and 21 days after application for field trial 2. All visual estimates were made in comparison to untreated check plots. Results reported are the mean control of broadleaf weeds, and percent control for Setaria viridis, the predominant grassy weed in this experiment.

maize [4] = assay: Field trials, phytotoxicity to maize; conditions: grass herbicides 1000 g/ha, atrazine 1680 g/ha, B-128 150 g/ha
Excerpt: as §4, §5, §6

broadleaf weeds = assay: Field trials, mean control of broadleaf weeds; conditions: grass herbicides 1000 g/ha, atrazine 1680 g/ha, B-128 150 g/ha
Excerpt: as §4, §5, §6

maize [5] = assay: Greenhouse pre-emergence test, phytotoxicity to maize
Excerpt: as §1, with “PSI. […]” for “PSI.”
as §3, with “Results are reported in table 3 as the mean control of all six broadleaf weeds, mean control of all four grass weeds and the phytotoxicity to maize.” left out

[6] = field trial 1, low organic matter, high sand content soil, 35 days after application
[7] = field trial 2, moderate organic matter, high clay content soil, 21 days after application

SMILES | broadleaf control [1] [%] | Grass control [2] [%] | performance (in words) ([3]; higher organic, high clay soil, compared with the three standards) | efficacy (in words) ([3]; sandy, low organic matter soil, combined with atrazine or B-128) | S. viridis control (Setaria viridis; [6]) [%] | S. viridis control (Setaria viridis; [7]) [%] | Phytotoxicity (maize [4]; [6]) [%] | Phytotoxicity (maize [4]; [7]) [%] | broadleaf control (broadleaf weeds; [6]) [%] | broadleaf control (broadleaf weeds; [7]) [%] | phytotoxicity to maize (in words) (maize [5]; in vivo) | Phytotoxicity (maize [5]; phytotoxicity to maize, greenhouse, visual rating 0-100% after two weeks, grass herbicides 1000 g/ha, atrazine 1680 g/ha, isoxaflutole 78 g/ha, B-128 125 g/ha) [%]
CCc1cccc(CC)c1N(CC#N)C(=O)CCl [Cpd 1] | 22 | 100 | – | – | – | – | – | – | – | – | – | –
C#CCN(C(=O)CCl)c1c(C)cccc1CC [Cpd 15] | 32 | 100 | – | – | – | – | – | – | – | – | – | –
C#CCN(C(=O)CCl)c1c(CC)cccc1CC [Cpd 16] | 53 | 100 | relatively better than two of the three standards | equal efficacy as other herbicides | 96 | 75 | 0 | 2 | 33 | 24 | – | –
C#CCN(C(=O)CCl)c1c(C)cccc1C [Cpd 23] | 33 | 100 | – | – | – | – | – | – | – | – | moderately more phytotoxic | –
CCc1cccc(C)c1N(C(=O)CCl)[C@@H](C)COC [Metolachlor S, (S)-2-chloro-N-(2-ethyl-6-methylphenyl)-N-(2-methoxy-1-methylethyl)acetamide] | 41 | 100 | – | – | 100 | 60 | 0 | 1 | 40 | 18 | – | 0
CCOCN(C(=O)CCl)c1c(C)cccc1CC [acetochlor, 2-chloro-N-ethoxymethyl-6′-ethylacet-o-toluidide] | 75 | 100 | – | – | 99 | 87 | – | – | 50 | 36 | – | –
COCC(C)N(C(=O)CCl)c1c(C)csc1C (centres unmarked) [dimethenamid, 2-chloro-N-[(1-methy-2-methoxyl)ethyl]-N-(2,4-dimethyl-3-thienyl)-acetamide] | 68 | 100 | – | – | 100 | 86 | – | – | 44 | 26 | – | –
